The series deals with rabbits. Put plainly: Rabbit pyrogen test (USP<151>). Conditions: CRX-601 per kg animal body weight.

Regarding `CCCCCCCCCCC[C@H](CC(=O)NC1C(OC(=O)C[C@@H](CCCCCCCCCCC)OCCCCCCCCCC)[C@H](OP(=O)(O)O)C(CO)O[C@H]1OC[C@H](NC(=O)C[C@@H](CCCCCCCCCCC)OCCCCCCCCCC)C(=O)O)OCCCCCCCCCC` (stereo partly shown) [free CRX-601], the Max non-pyrogenic dose fell in the range of 0.001 to 0.002 µg/kg.
